Experimental data taken from publication PMC9721424, “Novel N-methylsulfonyl-indole derivatives: biological activity and COX-2/5-LOX inhibitory effect with improved gastro protective profile and reduced cardio vascular risks” (Journal of Enzyme Inhibition and Medicinal Chemistry, 2022).
Like-named read-outs stand apart in the source and are kept apart here.

Legend:
[1] = target: T1, ovine COX-1 (Ovis aries, UniProt P05979); test: COX-1 inhibition, enzyme immune assay (EIA) kit
T1 sequence (P05979 25-600): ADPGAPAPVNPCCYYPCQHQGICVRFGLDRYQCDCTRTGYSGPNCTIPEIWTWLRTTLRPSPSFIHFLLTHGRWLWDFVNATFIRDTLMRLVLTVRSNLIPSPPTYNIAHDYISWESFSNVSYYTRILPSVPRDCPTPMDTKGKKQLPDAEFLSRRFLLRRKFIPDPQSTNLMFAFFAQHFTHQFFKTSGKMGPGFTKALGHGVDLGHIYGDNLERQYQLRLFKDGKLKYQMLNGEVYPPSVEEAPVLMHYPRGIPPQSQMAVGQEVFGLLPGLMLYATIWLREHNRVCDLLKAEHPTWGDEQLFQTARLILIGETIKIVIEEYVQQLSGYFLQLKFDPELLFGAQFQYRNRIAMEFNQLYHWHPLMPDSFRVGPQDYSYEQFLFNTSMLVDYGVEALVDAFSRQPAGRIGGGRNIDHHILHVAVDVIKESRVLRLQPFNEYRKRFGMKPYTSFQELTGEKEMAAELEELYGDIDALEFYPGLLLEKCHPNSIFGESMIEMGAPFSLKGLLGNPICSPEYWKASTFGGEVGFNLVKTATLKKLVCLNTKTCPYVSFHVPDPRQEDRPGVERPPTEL
From the text: Colorimetric enzyme immunoassay (EIA) kits were done to screen for the isozyme-specific inhibition.

[2] = DPPH free radical assay; assay type: biochemical; conditions: 540 nm, relative to Trolox; for DPPH test results (µM trolox equivalent/ 1mg sample ± SD): 30 min; for DPPH anti-oxidant activity: values in text
Description: (§1) Preparation of samples was occurred at the following concentrations: Samples 3a, 4a, 5b, 5d and 5e at final concentrations of 0.5 mg/ml in methanol: DMSO 9:1 v/v. Samples 4b and 4d at final concentrations 0.025 mg/ml in methanol: DMSO 9:1 v/v, sample 5a at final concentrations 0.25 mg/ml in methanol: DMSO 9:1 v/v, Sample 4c, 5c and 4e at final concentrations 0.05 mg/ml in methanol: DMSO 9:1 v/v, sample 3b at final concentration 0.75 mg/ml methanol: DMSO 9:1 v/v. A stock solution of 100 µM concentration of Trolox, a standard used in this experiment, was prepared in methanol from which seven concentrations were prepared, including 50, 40, 30, 20, 15, 10 and 5 µM.
The DPPH (2,2-diphenyl-1-picryl-hydrazyl-hydrate) free radical assay was carried out according to the method of Boly et al. 2016[39]. Briefly, freshly prepared DPPH reagent (100 µl, 0.1% in methanol) was added to 100 µl of the sample on 96 well plates (n = 6). The reaction was incubated at room temp for 30 min in the dark. After completion of the incubation time, the reduction in DPPH colour intensity was measured at 540 nm. Data obtained was represented as means ± SD, according to the following equation, percentage inhibition = [(Average absorbance of blank – average absorbance of the test)/(Average absorbance of blank)] *100. The results were recorded using a microplate reader, FluoStar Omega.
Microsoft Excel® was used to analyse the obtained results. The IC50 values were calculated using Graph pad Prism 6® by converting the concentrations to their logarithmic value and selecting the non-linear inhibitor regression equation (log (inhibitor) vs. normalised response – variable slope equation). The methods used and the final test report (R-SO7320) were obtained from Nawah Scientific.

[3] = system: TNF-α in RAW264.7 macrophage cells; test: In vitro measurement of TNF-α in RAW264.7 macrophage cells (RT-qPCR); assay type: cell-based
From the text: Both Lipopolysaccharides (LPS) and hispidin were purchased from Sigma (Sigma-Aldrich, St. Louis, MO, USA)[40]. The foetal bovine serum (FBS) and Dulbecco’s modified Eagle’s medium (DMEM) were purchased from Hyclone (General Electric Healthcare Life Sciences, Mississauga, Canada), penicillin streptomycin (P/S) was purchased from Solarbio (Solarbio life sciences, Beijing, P. R. China). Results of all in vitro anti-inflammatory screening were obtained from the confirmatory diagnostic unit, VACSERA, Egypt.
DMEM was used to cultivate the macrophage cells RAW264.7 (Shanghai BOGO Industrial Co., Ltd., Shanghai, China), and supplemented with 10% FBS and 1% P/S (100 U/ml and […], respectively). […] They were treated with various concentrations of hispidin, then with 1 μg/ml LPS for the indicated time.
PBS (1 ml/well) was used to wash the cells in 24-well plates. […] For the experiments, CL Buffer included MgCl2 (M1028; Sigma) or RNasin Plus RNase Inhibitor (N2615; Promega). Before use, both Bio-Rad SPR and CL buffer were equilibrated to room temperature. […] Carefully, the resulting lysates were collected and either analysed immediately or stored frozen ([…]).
RT-qPCR analysis was performed in one-step SYBR Green RT-qPCR. […] A CFX96 real-time PCR instrument (Bio-Rad) was used under the following protocol: 50uC for 10 min, 95uC for 5 min, 95uC for 10 s/61uC for 15 s/72uC for 30 s.
Total RNA purified from cells was used as an RT-qPCR quantification standard.

[4] = target: T2, COX-2 (Ovis aries, UniProt P79208); test: COX-2 inhibition, enzyme immune assay (EIA) kit; assay type: biochemical, ovine; conditions: for S.I (IC50 COX-1/IC50 COX-2): COX-2 selectivity index; for SI: lab report, COX1/COX2
T2 sequence (P79208 17-603): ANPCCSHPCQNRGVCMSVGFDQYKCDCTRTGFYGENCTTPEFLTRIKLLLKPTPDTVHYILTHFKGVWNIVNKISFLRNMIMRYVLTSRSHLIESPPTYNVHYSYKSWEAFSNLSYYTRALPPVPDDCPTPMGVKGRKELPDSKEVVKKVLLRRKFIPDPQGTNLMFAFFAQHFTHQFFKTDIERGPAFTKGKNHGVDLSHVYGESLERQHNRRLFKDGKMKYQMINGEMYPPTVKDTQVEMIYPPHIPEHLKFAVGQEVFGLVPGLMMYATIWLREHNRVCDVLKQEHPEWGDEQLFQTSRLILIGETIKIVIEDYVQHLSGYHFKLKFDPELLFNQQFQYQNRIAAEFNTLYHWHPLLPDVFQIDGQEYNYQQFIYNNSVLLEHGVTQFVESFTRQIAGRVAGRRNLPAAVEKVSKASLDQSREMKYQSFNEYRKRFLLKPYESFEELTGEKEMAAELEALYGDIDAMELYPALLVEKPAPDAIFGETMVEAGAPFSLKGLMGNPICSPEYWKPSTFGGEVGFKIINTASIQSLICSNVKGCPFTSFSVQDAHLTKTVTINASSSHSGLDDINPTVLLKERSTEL

[5] = target: T3, 5-LOX enzyme (Homo sapiens, UniProt P09917); test: 5-LOX inhibition, Human Lipoxygenase Inhibitor Screening Assay (EIA) kit; assay type: biochemical
T3 construct: purchased Cayman Chemical K980-100
T3 sequence (P09917 1-674): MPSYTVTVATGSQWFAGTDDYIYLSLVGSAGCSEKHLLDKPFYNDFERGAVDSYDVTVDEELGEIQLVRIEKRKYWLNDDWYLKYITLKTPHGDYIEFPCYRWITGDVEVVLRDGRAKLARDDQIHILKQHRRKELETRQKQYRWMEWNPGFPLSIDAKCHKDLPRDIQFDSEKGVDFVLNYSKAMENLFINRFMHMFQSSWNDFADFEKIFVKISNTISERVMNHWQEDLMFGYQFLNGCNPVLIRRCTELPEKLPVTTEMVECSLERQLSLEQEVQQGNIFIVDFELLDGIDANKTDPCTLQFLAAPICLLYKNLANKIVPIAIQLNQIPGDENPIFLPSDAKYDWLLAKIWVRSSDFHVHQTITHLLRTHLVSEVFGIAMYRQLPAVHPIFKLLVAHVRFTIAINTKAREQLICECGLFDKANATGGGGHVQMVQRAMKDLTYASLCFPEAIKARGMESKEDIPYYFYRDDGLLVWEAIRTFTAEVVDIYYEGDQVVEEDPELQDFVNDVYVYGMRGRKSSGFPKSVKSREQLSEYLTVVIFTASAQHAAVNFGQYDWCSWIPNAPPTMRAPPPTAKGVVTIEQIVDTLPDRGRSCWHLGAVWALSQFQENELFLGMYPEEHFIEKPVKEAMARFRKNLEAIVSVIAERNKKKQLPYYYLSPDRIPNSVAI
Description: The ability of the test compounds to inhibit the 5-LOX enzyme (IC50 value, μM) was detected using the Cayman Human Lipoxygenase Inhibitor Screening Assay (EIA) kit (catalog no. K980-100, Cayman Chemical). The IC50 values of test compounds were measured in µM according to the manufacturer’s instructions and reported method.

[6] = system: Salmonella enterica (ATCC 14028); test: Disc diffusion antimicrobial screening, Salmonella enterica; assay type: cell-based; conditions: 100 µg/disc
Description: (§2) All compounds were screened for their antimicrobial activity at the Microbiology and Immunology Department, Faculty of Pharmacy, Beni-Suef University. The antimicrobial activity screening was carried out using the disc diffusion method, as described earlier, with some adjustments.
(§3) For each indicator microbe, a solution of half McFarland turbidity was prepared in sterile saline, followed by surface streaking of the strains on Mueller-Hinton agar with a sterile cotton swab. Then, sterile filter paper discs (5 mm diameter) preloaded with 100 µg of each compound were applied to the surface of the pre-inoculated plates. Then, the plates were chilled at 4 °C for 100 min before being incubated overnight at the proper temperature for microbial growth. Finally, the diameter of the inhibition zones around each disc was measured to evaluate the antimicrobial activity of the compounds. Ciprofloxacin was used as a standard antibacterial agent at a concentration of 20 µg/disc. Furthermore, DMSO-loaded discs were used as a negative control.

[7] = system: Escherichia coli (E. coli) (ATCC 25922); test: Disc diffusion antimicrobial screening, E. coli; assay type: cell-based; conditions: 100 µg/disc
Description: as §2, §3

[8] = Dissolution of DPPH samples in DMSO/methanol; assay type: physicochemical; conditions: DPPH sample preparation, methanol: DMSO 9:1 v/v
Description: as §1

[9] = system: stomach; test: Histopathological examination of stomach; assay type: in vivo, rats; conditions: rat, in vivo
Description: In brief, the stomachs of each animal group’s rat were fixed in 10% neutral buffered formalin for 48 h. The sections were then dehydrated, cleared, fixed in paraffin, sectioned ([…]), and stained with H&E stain.

Compound	IC50 ([1]; IC50 COX-1)	COX1 %inh ([1]; conc 0.1 (μM))	COX1 %inh ([1]; conc 1 (μM))	COX1 %inh ([1]; conc 10 (μM))	COX1 %inh ([1]; conc 100 (μM))	DPPH test results (µM trolox equivalent/ 1mg sample ± SD) [2]	TNF-α fold change [3]	melting point	S.I (IC50 COX-1/IC50 COX-2) [4]	SI [4]	IC50 [5]	5-LOX %inh ([5]; conc 0.1 (μM))	5-LOX %inh ([5]; conc 1 (μM))	5-LOX %inh ([5]; conc 10 (μM))	5-LOX %inh ([5]; conc 100 (μM))	DPPH anti-oxidant activity [2]	further results
CS(=O)(=O)n1cc(/C=N/NC(=O)Nc2ccccc2)c2ccccc21 [Compound 3b, (E)-2{[1-(methylsulfonyl)-1H-indol-3yl]methylene}-N-phenylhydrazinecarboxamide]	32 ± 0.91 µM	3.48%	11.6%	30.5%	68.5%	14.38 ± 0.85 µM trolox equivalent/ 1mg sample	0.71	234 to 236 °C	1.46	1.455	14.8 ± 0.78 µM	5.27%	16.1%	36.1%	78.4%	–	–
CCNC(=S)N/N=C/c1cn(S(C)(=O)=O)c2ccccc12 [Compound 4b, (E)-N-Ethyl-2{[1-(methylsulfonyl)-1H-indol-3yl]methylene}-hydrazinecarbothioamide]	28.5 ± 0.8 µM	3.74%	8.96%	27.4%	73.3%	426.65 ± 28.02 µM trolox equivalent/ 1mg sample	–	240 to 242 °C	–	0.236	29.2 ± 1.54 µM	4.17%	11.6%	30.5%	70.1%	426.65 µM Trolox equivalent/mg	antibacterial activity against Salmonella enterica [6]: selective antibacterial activity; antibacterial activity against E. coli [7]: selective antibacterial activity
Cc1ccc(NC(=S)N/N=C/c2cn(S(C)(=O)=O)c3ccccc23)cc1 [Compound 4d, (E)-2{[1-(methylsulfonyl)-1H-indol-3yl]methylene}-N-(p-tolyl)hydrazinecarbothioamide]	17.1 ± 0.49 µM	7.22%	13.4%	36.4%	75.8%	389.82 ± 19.25 µM trolox equivalent/ 1mg sample	0.19	237 to 239 °C	2.38	2.375	17.9 ± 0.95 µM	4.88%	12.5%	33.7%	77.2%	389.82 µM Trolox equivalent/mg	–
CCN1CC(=O)S/C1=N\N=C\c1cn(S(C)(=O)=O)c2ccccc12 [Compound 5b]	–	7.23%	15.2%	31.1%	73.6%	–	0.18	230 to 232 °C	0.25	0.249	47.8 ± 2.53 µM	1.82%	3.84%	15.1%	73.1%	–	solubility of sample in DMSO and methanol [8]: didn’t dissolve in DMSO nor in methanol; IC50 ([1]; read-out: IC50 COX-1): 22.2 ± 0.63 µM
COc1ccc2c(c1)c(CC(=O)O)c(C)n2C(=O)c1ccc(Cl)cc1 [Indomethacin, reference compound]	–	–	–	–	–	–	–	–	–	–	–	–	–	–	–	–	stomach histopathology finding [9]: multiple complete and perforating ulcers and superficial erosions
